ChEMBL document CHEMBL1130549, “Dihydroisoquinolone RGD mimics. Exploration of the aspartate isostere” (Bioorg Med Chem Lett, 1997)
Positions of bridges follow the written chain, without caps; N, C: chain ends. Non-standard residues stand in square brackets, D forms with d. Residues, ends and D or L forms follow the SMILES beside them. Pen = CC(C)(S)[C@H](N)C(=O)O; Mpa = O=C(O)CCS

How the values were obtained:
Format in all cases: protein-complex assay
[1] = biological target: T1, Integrin alpha-IIb/beta-3 (Homo sapiens, UniProt P05106+P08514); assay: Inhibition of fibrinogen binding to purified human alpha IIb beta-3 integrin by 50% in an ELISA test
T1 sequence (P05106 27-788 limits assumed): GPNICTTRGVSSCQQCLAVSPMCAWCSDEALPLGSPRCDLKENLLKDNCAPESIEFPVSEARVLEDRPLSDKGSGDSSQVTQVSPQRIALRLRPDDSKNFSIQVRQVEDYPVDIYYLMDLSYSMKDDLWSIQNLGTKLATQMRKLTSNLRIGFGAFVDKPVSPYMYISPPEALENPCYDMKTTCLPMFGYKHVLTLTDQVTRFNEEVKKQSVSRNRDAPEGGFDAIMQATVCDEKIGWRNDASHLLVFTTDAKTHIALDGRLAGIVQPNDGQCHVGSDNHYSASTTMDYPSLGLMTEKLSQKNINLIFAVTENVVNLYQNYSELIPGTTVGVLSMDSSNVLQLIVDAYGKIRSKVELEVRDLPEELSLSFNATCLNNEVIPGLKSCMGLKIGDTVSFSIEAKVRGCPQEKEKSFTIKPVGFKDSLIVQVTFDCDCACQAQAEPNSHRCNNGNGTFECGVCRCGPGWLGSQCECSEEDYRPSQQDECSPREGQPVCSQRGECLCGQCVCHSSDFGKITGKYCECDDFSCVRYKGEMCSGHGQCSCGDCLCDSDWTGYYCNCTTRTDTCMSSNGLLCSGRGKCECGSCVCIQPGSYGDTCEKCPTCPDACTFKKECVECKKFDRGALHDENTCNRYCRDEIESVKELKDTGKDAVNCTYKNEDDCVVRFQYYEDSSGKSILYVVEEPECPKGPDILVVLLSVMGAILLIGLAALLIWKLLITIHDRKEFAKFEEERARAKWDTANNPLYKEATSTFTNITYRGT
T1 sequence (P08514 32-887 limits assumed): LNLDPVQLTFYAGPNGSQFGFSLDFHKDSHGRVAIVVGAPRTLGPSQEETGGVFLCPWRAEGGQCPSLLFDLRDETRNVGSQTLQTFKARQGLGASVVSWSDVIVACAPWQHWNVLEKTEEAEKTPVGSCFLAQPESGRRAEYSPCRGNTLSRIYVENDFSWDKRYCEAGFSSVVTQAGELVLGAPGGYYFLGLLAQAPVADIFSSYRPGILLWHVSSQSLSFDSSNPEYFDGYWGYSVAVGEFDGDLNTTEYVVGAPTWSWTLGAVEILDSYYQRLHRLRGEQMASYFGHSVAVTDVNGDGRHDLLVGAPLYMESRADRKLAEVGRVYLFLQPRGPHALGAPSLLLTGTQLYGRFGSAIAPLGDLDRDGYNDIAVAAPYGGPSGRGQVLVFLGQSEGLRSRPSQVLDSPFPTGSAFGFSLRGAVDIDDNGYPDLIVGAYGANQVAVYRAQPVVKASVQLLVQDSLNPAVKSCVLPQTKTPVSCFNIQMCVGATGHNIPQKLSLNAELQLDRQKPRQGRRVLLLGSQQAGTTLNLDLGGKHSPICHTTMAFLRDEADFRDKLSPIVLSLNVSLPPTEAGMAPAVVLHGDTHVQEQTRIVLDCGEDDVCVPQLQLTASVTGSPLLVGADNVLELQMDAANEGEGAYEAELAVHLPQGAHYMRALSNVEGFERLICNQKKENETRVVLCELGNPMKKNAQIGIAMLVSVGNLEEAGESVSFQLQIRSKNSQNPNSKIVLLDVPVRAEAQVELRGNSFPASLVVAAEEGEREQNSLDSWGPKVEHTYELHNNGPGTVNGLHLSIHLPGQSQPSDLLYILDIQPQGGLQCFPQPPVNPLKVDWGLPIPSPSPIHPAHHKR
T1 sequence (P08514 891-1039 limits assumed): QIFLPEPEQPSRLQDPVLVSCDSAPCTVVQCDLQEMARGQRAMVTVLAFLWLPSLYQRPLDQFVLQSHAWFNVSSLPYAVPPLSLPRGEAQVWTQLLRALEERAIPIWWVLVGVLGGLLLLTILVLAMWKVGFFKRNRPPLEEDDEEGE

[2] = biological target: T1, Integrin alpha-IIb/beta-3; assay: Inhibition of fibrinogen binding to purified Human alphaIIb-beta3 integrin in ELISA with 4.5% bovine serum albumin (BSA)
[3] = biological target: T1, Integrin alpha-IIb/beta-3; assay: Inhibition of fibrinogen binding to purified Human alphaIIb-beta3 integrin in ELISA with 0.1% bovine serum albumin (BSA)
[4] = biological target: T1, Integrin alpha-IIb/beta-3; assay: Inhibition of fibrinogen binding to purified Human alphaIIb-beta3 integrin in ELISA with 1% bovine serum albumin (BSA)

Structure (SMILES)	IC50 [1] [nM]	IC50 [2] [nM]	IC50 [3] [nM]	IC50 [4] [nM]
COc1ccc(C(CC(=O)O)N2CCc3cc(OCc4ccc(C(=N)N)cc4)ccc3C2=O)cc1 (stereo not drawn)	8	–	–	–
CCCCC(CC(=O)O)N1CCc2cc(OCc3ccc(C(=N)N)cc3)ccc2C1=O (stereo not drawn)	40	–	–	–
COCCCC(CC(=O)O)N1CCc2cc(OCc3ccc(C(=N)N)cc3)ccc2C1=O (stereo not drawn)	56	–	–	–
CCCCCCC(CC(=O)O)N1CCc2cc(OCc3ccc(C(=N)N)cc3)ccc2C1=O (stereo not drawn)	41	310	41	80
CCCCCC(CC(=O)O)N1CCc2cc(OCc3ccc(C(=N)N)cc3)ccc2C1=O (stereo not drawn)	–	100	24	40
CCOCCCC(CC(=O)O)N1CCc2cc(OCc3ccc(C(=N)N)cc3)ccc2C1=O (stereo not drawn)	–	100	61	73
N=C(N)c1ccc(COc2ccc3c(c2)CCN(C(CC(=O)O)c2ccccc2)C3=O)cc1 (stereo not drawn)	7	–	–	–
CC1(C)SSCCC(=O)N[C@@H](CCCNC(=N)N)C(=O)NCC(=O)N[C@@H](CC(=O)O)C(=O)N[C@@H](Cc2c[nH]c3ccccc23)C(=O)N2CCC[C@H]2C(=O)N[C@@H]1C(N)=O ([Mpa]RGDWP[Pen]-NH2; disulfide 1-7)	100	–	–	–

The next lines start with the values.

IC50 [1] [nM]	IC50 [2] [nM]	IC50 [3] [nM]	IC50 [4] [nM]	Structure (SMILES)
90	–	–	–	COCCOCC(CC(=O)O)N1CCc2cc(OCc3ccc(C(=N)N)cc3)ccc2C1=O (stereo not drawn)
1800	–	–	–	CCCC(CN1CCc2cc(OCc3ccc(C(=N)N)cc3)ccc2C1=O)C(=O)O (stereo not drawn)
1700	–	–	–	CCCC(C(=O)O)N1CCc2cc(OCc3ccc(C(=N)N)cc3)ccc2C1=O (stereo not drawn)
46	–	–	–	CCC(CC(=O)O)N1CCc2cc(OCc3ccc(C(=N)N)cc3)ccc2C1=O (stereo not drawn)
47	–	–	–	CCCC(CC(=O)O)N1CCc2cc(OCc3ccc(C(=N)N)cc3)ccc2C1=O (stereo not drawn)
6	–	–	–	COC(=O)c1ccc(C(CC(=O)O)N2CCc3cc(OCc4ccc(C(=N)N)cc4)ccc3C2=O)cc1 (stereo not drawn)
320	–	–	–	N=C(N)c1ccc(COc2ccc3c(c2)CCN(CCC(=O)O)C3=O)cc1
3	–	–	–	N=C(N)c1ccc(C(=O)Nc2ccc3c(c2)CCN(CC(=O)O)C3=O)cc1
